The numbers were not newly measured in patent US6306425A, “Injectable naltrexone microsphere compositions and their use in reducing consumption of heroin and alcohol” (Southern Research Institute, priority 2000, dated 2001), which cites them from elsewhere.

Structures are written as SMILES.

Turning to `O=C1CC[C@@]2(O)[C@H]3Cc4ccc(O)c5c4[C@@]2(CCN3CC2CC2)[C@H]1O5` [naltrexone], the “Control of amount of alcohol consumed and number of binges” value with alcoholics is “serves to enhance the control of the alcoholic in the amount of alcohol consumed and the number of binges”. Moreover, the Safety entry (administered levels in excess of those of the subject compositions) is listed as “found to be safe”. Also, the Hepatotoxicity result (high dosages) is reported as “some reports of hepatotoxicity”. In addition, for the setting “oral naltrexone”, the “Population with adverse reactions” value is on record as “about 10%”.
